From patent US20160237450A1, “METHOD FOR ENHANCING DROUGHT TOLERANCE IN PLANTS” (Plant Response Biotech S.L., priority 2015, published 2016)

Key:
Format in all cases: in vivo
[1] = test system: broccoli plants ('Parthenon'); assay: Broccoli inflorescence production under limited water; conditions: 30% water; for % Control (inflorescence weight): versus untreated 30% water
Description: TMAO di-hydrate applied exogenously which increases the endogenous content of TMAO as if the plants were overexpressing an FMO protein at least 4 times increases plant production in broccoli under limited water irrigation. ‘Parthenon’ broccoli seeds were sown, grown and treated as described above. Spray and irrigation treatments with 1 g/L TMAO di-hydrate increased plant production, as measured by the average weight of the crown plus stems in grams.

garlic plants = assay: Yield production without drought stress, garlic; conditions: 1 g/l spray every 4 weeks for 3 months, no drought stress
Protocol: Root or leaves yield was determined in the plants treated with 1 g/l of TMAO di-hydrate or water as described above in order to evaluate the trade-off costs of the treatment with no drought stress.

corn plants ('FAO700') = assay: Corn number of green leaves under limited water; conditions: 30% water
Protocol: (§1) In order to determine the drought or drought stress tolerance after seed treatments with TMAO di-hydrate and germination in the presence of TMAO di-hydrate, barley “Hispanic” seeds, corn “FAO700” seeds, and “Sambro” sunflower seeds were surface sterilized for 3 minutes in ethanol 70%, then rinsed twice and finally included in a pre-treatment solution of 1 g/L TMAO di-hydrate solution (or just water) under shaking for 3 hours at a dose of 1 litre per Kg of seeds. Then, the seeds were sown in randomized plots of 10 sqm in a surface of 2.000 sqm. Chlorophyll content was measured 1 month before harvest. In corn irrigation was applied in half of the plots while the other half only received an initial establishment watering. The barley plots received 200 l of rain per m^2 through the growing season. Some of the plots received a second spray treatment with 1 g/liter of TMAO. […] At least 3 independent plants were treated per experiment.
TMAO di-hydrate applied exogenously which increases the endogenous content of TMAO as if the plants were overexpressing an FMO protein at least 4 times increases plant production in corn under limited water irrigation. Plants were irrigated with 30% of the water they normally require. ‘FAO700’ corn seeds were sown, grown and treated as described. Spray treatments with 1 g/L TMAO increased plant number of green leaves.

pepper plants ('Murano') = assay: Pepper plant survival under extreme drought
Protocol: For each drought or limited water experiment 480 seeds (of either pepper, barley, tomato, cucumber or corn) were sown, producing 384 plants in 512 cm^3 pots (4 plants per pot). Plants were grown under chamber conditions at 21° C. for 3 weeks. Then, the plants were moved to a greenhouse, where average temperature was 25° C. to 28° C. Spray and irrigation treatments as described herein were done when the plants had two extended leaves and the next pair of leaves were coming up.
Treatments: Twelve pots (containing 48 plants) were irrigated with 40 ml of either: water, 0.1 g/L TMAO di-hydrate solution, 1.0 g/L TMAO di-hydrate solution, or 5.5 g/L TMAO di-hydrate solution. Another set of 12 pots containing 48 plants were sprayed with 40 ml of either water (3.3 ml in average per pot), a solution containing 0.1 g/L TMAO di-hydrate solution, 1.0 g/L TMAO di-hydrate, or 5 g/L, or 10 g/L TMAO di-hydrate. Further sets of 12 pots containing 48 plants were both sprayed with each initial solution TMAO di-hydrate solution and further irrigated with the same TMAO di-hydrate solutions used in the control water sprayed plants. All pots were also watered with 40 ml of water. The sprayed plants were watered with the same volume of water as the “irrigated plants). The pots were located on plastic glass to maintain constant moisture and to avoid liquid spillage during watering. Trays containing the pots were located on greenhouse tables. The distribution of the trays on the table and the position on the pots in the tray was changed every week to avoid position effects.
After the treatments described above, the plants were not watered until the pots completely lost their moisture, taking about 4 to 8 days depending on the season, at which point the plants were extremely wilted for the extreme drought experiments. The plants were then watered once with solutions containing the different amounts of TMAO di-hydrate (0.1 g/L, 1.0 g/L, 5 g/L, or 10 g/L) or just water, after which the plants were left to lose their moisture completely again for three consecutive cycles of watering after wilting. For the “extreme drought” experiments plants were allowed to wilt severely before watering and then the plant survival rate was recorded and analyzed.
TMAO di-hydrate applied exogenously, which increases the endogenous content of TMAO as if the plants were overexpressing an FMO protein at least 4 times increases plant survival in pepper plants under extreme drought conditions. ‘Murano’ pepper seeds were sown, grown and treated as described above.

[2] = test system: broccoli plants (Parthenon); assay: Broccoli inflorescence fresh weight with constant TMAO irrigation; conditions: 100% water; constant irrigation with 1 g/L
Description: TMAO di-hydrate applied exogenously which increases the endogenous content of TMAO as if the plants were overexpressing an FMO protein at least 4 times increases plant production in broccoli. Parthenon broccoli seeds were sown, grown and treated as described above. Constant irrigation with 1 g/L TMAO di-hydrate increased plant inflorescence production.

[3] = test system: barley plants ('Hispanic'); assay: Barley field seed production without irrigation; conditions: no external irrigation
Protocol: as §1
TMAO di-hydrate applied exogenously which increases the endogenous content of TMAO as if the plants were overexpressing an FMO protein at least 4 times increases seed production in barley grown in the field without irrigation. ‘Hispanic” barley seeds were sown, grown and treated as described. Both, seed treatments (each Kg of seed was soaked in 1 liter of a 1 g/1 L TMAO di-hydrate solution, although smaller volumes of this solution are also effective) and a combination of seed and spray treatments with 1 g/L TMAO di-hydrate increased plant grain production. The field experienced 200 l/m^2 of rain water in total through the season.

[4] = 1 g TMAO/1 Kg seed + 1 g/L spray

Structure (SMILES): C[N+](C)(C)[O-].O.O [TMAO di-hydrate, trimethylamine N-oxide di-hydrate]
- AVERAGE WEIGHT (grams/inflorescence) ([1]; 1 g/L irrigation): 85.2 ± 4.6 grams/inflorescence
- % Control (inflorescence weight) ([1]; 1 g/L irrigation): 106%
- AVERAGE WEIGHT (grams/inflorescence) ([1]; 1 g/L spray): 87.3 ± 6.7 grams/inflorescence
- % Control (inflorescence weight) ([1]; 1 g/L spray): 108%
- Yield production, % Control (garlic plants): 109%
- increase in biomass production shown in green leaf production over untreated plants with 30% irrigation (corn plants ('FAO700'); 1 g/L (rows 3 and 4: spray, seed)): 47%
- AVERAGE NUMBER OF GREEN LEAVES (corn plants ('FAO700'); 1 g/L seed treatment): 8.50 ± 0.41
- AVERAGE NUMBER OF GREEN LEAVES (corn plants ('FAO700'); 1 g/L spray): 8.50 ± 0.25
- SURVIVAL RATE (%) (pepper plants ('Murano'); irrigation 0.1 g/L, initial spray 0.1 g/L): 33.3 ± 8.3%
- SURVIVAL RATE (%) (pepper plants ('Murano'); irrigation 0.1 g/L, initial spray 1 g/L): 54.1 ± 8.3%
- SURVIVAL RATE (%) (pepper plants ('Murano'); irrigation 0.1 g/L, initial spray 10 g/L): 83.3 ± 8.3%
- SURVIVAL RATE (%) (pepper plants ('Murano'); irrigation 0.1 g/L, initial spray water): 29.1 ± 8.3%
- SURVIVAL RATE (%) (pepper plants ('Murano'); irrigation 1 g/L, initial spray 0.1 g/L): 33.3 ± 7.7%
- SURVIVAL RATE (%) (pepper plants ('Murano'); irrigation 1 g/L, initial spray 1 g/L): 33.3 ± 7.7%
- SURVIVAL RATE (%) (pepper plants ('Murano'); irrigation 1 g/L, initial spray 10 g/L): 37.5 ± 7.7%
- SURVIVAL RATE (%) (pepper plants ('Murano'); irrigation 1 g/L, initial spray water): 0.0 ± 7.7%
- SURVIVAL RATE (%) (pepper plants ('Murano'); irrigation 5 g/L, initial spray 0.1 g/L): 100 ± 3.8%
- SURVIVAL RATE (%) (pepper plants ('Murano'); irrigation 5 g/L, initial spray 1 g/L): 100 ± 3.8%
- SURVIVAL RATE (%) (pepper plants ('Murano'); irrigation 5 g/L, initial spray 10 g/L): 87.5 ± 3.8%
- SURVIVAL RATE (%) (pepper plants ('Murano'); irrigation 5 g/L, initial spray water): 95.8 ± 3.8%
- SURVIVAL RATE (%) (pepper plants ('Murano'); irrigation all regimes, initial spray 0.1 g/L): 51.0 ± 3.6%
- SURVIVAL RATE (%) (pepper plants ('Murano'); irrigation all regimes, initial spray 1 g/L): 62.5 ± 3.6%
- SURVIVAL RATE (%) (pepper plants ('Murano'); irrigation all regimes, initial spray 10 g/L): 71.8 ± 3.6%
- SURVIVAL RATE (%) (pepper plants ('Murano'); irrigation water, initial spray 0.1 g/L): 37.5 ± 8.1%
- SURVIVAL RATE (%) (pepper plants ('Murano'); irrigation water, initial spray 1 g/L): 62.5 ± 8.1%
- SURVIVAL RATE (%) (pepper plants ('Murano'); irrigation water, initial spray 10 g/L): 79.1 ± 8.1%
- AVERAGE FRESH WEIGHT (GRAMS) PER INFLORESCENCE [2]: 220.2 ± 16.6 GRAMS
- increase of broccoli inflorescence fresh weight [2]: 70%
- % Control (seed production) ([3]; 1 g TMAO/1 Kg seed): 18%
- Average number of Grams per square meter (seed production) ([3]; 1 g TMAO/1 Kg seed): 225.98 ± 11.89 Grams per square meter
- % Control (seed production) [3, 4]: 35%
- Average number of Grams per square meter (seed production) [3, 4]: 256.36 ± 12.78 Grams per square meter
